Measurements from US20170127675A1, “COMPOSITIONS AND METHODS FOR CONTROLLING INSECT POPULATIONS” (OLFACTOR LABORATORIES, INC., priority 2014, published 2017).
Counter-ions that a name gives are not always drawn.

System: mosquitoes
Test: Attractive toxic sugar assay
Format: in vivo
Conditions: after three days, dead / total mosquitoes
Procedure: Experiments were carried out to examine the lethality of compounds of the present invention using an attractive toxic sugar assay. These experiments were carried out in 6 groups according to Table 3. […] The experimental room was conditioned with 75% humidity or higher. Experimental cages were prepared by adding paper towels to the cage bottoms. Cages of mosquitoes were collected (about 25 males and about 25 females per cage), one cage for each sugar bait being tested with an extra cage to use as a sucrose-only control. […] Feeding cups were prepared with 10 ml of experimental sugar bait to a cup. In some experiments, blue food coloring was added to verify sugar consumption in the frass. Bait cups were mixed by gentle swirling and wicks were added through the top. Control bait cups received about 10 ml of prepared 10% sucrose solution (except where otherwise indicated). Heat, humidity as well as humidifier water content were checked each day. Cages were examined daily for dead mosquitoes. The number of dead mosquitoes per gender was recorded each day. Frass content was examined daily and compared with that of sucrose control. After three days, final observations were made and live mosquitoes were removed from each experimental cage and placed into cups for examination under the dissecting scope to determine whether or not female mosquitoes had fed. Once feeding females had been determined for populations from each cage, cups were frozen and discarded. Dead mosquitoes in each cage were counted and the sex of each determined. The relative frass content per cage was compared to that of the sucrose control cage. […] Percent (%) lethality was calculated for each treatment group by dividing the total (male and female) number of dead mosquitoes by the total number of mosquitoes for each.

[1] = sugar conc. 0.10%, about 25 male and 25 female mosquitoes per cage

CC1(C)[C@@H](O[C@H]2O[C@H](C(=O)O)[C@@H](O)[C@H](O)[C@H]2O[C@@H]2O[C@H](C(=O)O)[C@@H](O)[C@H](O)[C@H]2O)CC[C@]2(C)[C@H]3C(=O)C=C4[C@@H]5C[C@@](C)(C(=O)O)CC[C@]5(C)CC[C@@]4(C)[C@]3(C)CC[C@@H]12 [glycyrrhizic acid ammonium salt]
% Lethality [1]: 68.3%

O.O.O.O.O.OC[C@H]1O[C@H](OC[C@H]2O[C@H](O[C@]3(CO)O[C@H](CO)[C@@H](O)[C@@H]3O)[C@H](O)[C@@H](O)[C@@H]2O)[C@H](O)[C@@H](O)[C@H]1O [D-(+)-raffinose pentahydrate]
% Lethality [1]: 38.8%

C[C@@H]1O[C@@H](OC[C@H]2O[C@@H](Oc3c(-c4ccc(O)c(O)c4)oc4cc(O)cc(O)c4c3=O)[C@H](O)[C@@H](O)[C@@H]2O)[C@H](O)[C@H](O)[C@H]1O [rutin hydrate]
% Lethality [1]: 58% | % Lethality (sugar conc. 0.50%): 45%

sucrose octasulfate aluminum complex
% Lethality [1]: 39.6%

OC[C@H]1O[C@H](OCC2O[C@@H](O)[C@H](O)[C@@H](O)[C@@H]2O)[C@H](O)[C@@H](O)[C@H]1O (stereo partly drawn) [melibiose]
% Lethality [1]: 64.4%

O=C(CO)[C@@H](O[C@H]1O[C@H](CO)[C@@H](O)[C@H](O)[C@H]1O)[C@H](O)[C@H](O)CO [D-(+)-turanose]
% Lethality [1]: 66% | % Lethality (sugar conc. 0.50%): 29%

CO[C@@H]1O[C@H](CO)[C@H](O)[C@H](O)[C@H]1O [methyl-beta-D-galactopyranoside]
% Lethality [1]: 65.9% | % Lethality (sugar conc. 0.50%): 43%

n-acetyl allolactosamine
% Lethality [1]: 44%

OC[C@H]1O[C@@H](O[C@H]2O[C@H](CO)[C@@H](O)[C@H](O)[C@H]2O)[C@H](O)[C@@H](O)[C@@H]1O [alpha,beta-trehalose]
% Lethality [1]: 56.2%
